A short description of data set [1]: Pharmacokinetic evaluation of compounds in rats. The class given is in vivo. The note with it: rat, plasma, SD rats. As to the method:
Purpose of assay: To assay the pharmacokinetic data of the compounds in SD rats in vivo.
Compounds were mixed with vehicle 5% DMSO/95% (10% HP-β-CD in water), and the mixture was vortexed and sonicated to give a clear solution of 0.3 mg/mL. The candidate compound solutions were administered intravenously. Whole blood was collected for a certain period of time to prepare plasma. The drug concentration was analyzed by LC-MS/MS method, and pharmacokinetic parameters were calculated.
Compounds were mixed with vehicle 5% DMSO/95% (10% HP-β-CD in water), and the mixture was vortexed and sonicated to give a solution of 7 mg/mL. The candidate compound solutions were administered orally. Whole blood was collected for a certain period of time to prepare plasma. The drug concentration was analyzed by LC-MS/MS method, and pharmacokinetic parameters were calculated.

Data set [2] is described as follows: Pharmacokinetic evaluation of compounds in dogs. The class given is in vivo. The note with it: dog, plasma, Beagle dogs. As to the method:
Purpose of assay: To assay the pharmacokinetic data of the compounds in Beagle dogs in vivo.
Compound 014 was mixed with vehicle 20% DMSO/60% PEG400/20% (10% HP-β-CD in water), and the mixture was vortexed and sonicated to give a clear solution of 4 mg/mL. The candidate compound solutions were administered intravenously. Whole blood was collected for a certain period of time to prepare plasma. The drug concentration was analyzed by LC-MS/MS method, and pharmacokinetic parameters were calculated.
Compound 014 was mixed (15 mg/mL) with vehicle 20% DMSO/60% PEG400/20% (10% HP-β-CD in water), and the mixture was vortexed and sonicated to give solutions of 6 mg/mL to 15 mg/mL. The candidate compound solutions were administered orally. Whole blood was collected for a certain period of time to prepare plasma. The drug concentration was analyzed by LC-MS/MS method, and pharmacokinetic parameters were calculated.

On to `C#Cc1c(F)ccc2cc(N)cc(-c3ccc4c(N5CC6CCC(C5)N6)nc(OC[C@@]56CCCN5C[C@H](F)C6)nc4c3F)c12` [Compound 014], for which, in data set [1] (IV, 1.56 mg/kg), the AUC(0-inf) came to 0.15 µM·h, the C0 is 971 nM, the Vd came out at 5.89 L/kg and the clearance is 271 mL/min/kg. The half-life in data set [1] (IV, 1.56 mg/kg) is 0.56 h. Moreover, in data set [1] (PO, 31.7 mg/kg), the total exposure AUC(0-inf) worked out at 0.427 µM·h, the concentration peaked (Cmax) at 182 nM, the bioavailability was 12.5% and the half-life was 6.8 h. In data set [2] (IV, 1.56 mg/kg), this compound yielded an AUC(0-inf) of 0.15 µM·h, a C0 of 971 nM, a Vd of 5.89 L/kg and a clearance of 271 mL/min/kg. The half-life in data set [2] (IV, 1.56 mg/kg) was 0.56 h. In data set [2] (PO, 32.1 mg/kg), the AUC(0-inf) was found to be 0.969 µM·h, the Cmax was determined as 439 nM, the bioavailability was 16.9% and the half-life is 10.8 h.

Usually AUC(0-inf) stands for the area under the concentration-time curve extrapolated to infinity. By Vd is commonly meant a proportionality between amount in the body and measured concentration, not a real space. Lower therefore signals confinement near the circulation. For orientation: clearance means a measure of how efficiently the substance is removed, as volume per time. Read a high clearance as efficient removal. Usually half-life stands for how long it takes for the measured level to halve. Low readings indicate fast loss, high ones slow loss. What is called Cmax is the maximum level reached in the sampled fluid or tissue. As a reminder, the bioavailability is dose-corrected exposure relative to a reference, in per cent. A higher bioavailability goes with much systemic uptake.

Source of the values: patent US20240174692A1, “PYRIMIDINE AROMATIC RING COMPOUNDS” (Medshine Discovery Inc., priority 2021, published 2024).
